Where two headings read alike, the source gives them in different places.
Assays:
[1] = design: method as in Zhang et al., 2020; conditions: oral, ref Zhang et al., 2020, cited from earlier work
[2] = Stability of orelabrutinib in rat plasma under storage and analytical conditions; type: in vitro ADME; conditions: for Measured concentration, Mean ± SD / RE (relative error vs nominal): n = 5
Experimental: To investigate the stability of orelabrutinib in rat plasma, QC plasma samples of three concentrations were placed in different environments to examine the short-term, long-term, three freeze-thaw cycles and stability at 10°C. Short-term stability was determined by placing plasma samples at room temperature for at least 3 h. Long-term stability was determined by testing plasma samples after 21 days of storage at −80°C. The stability of the plasma samples was evaluated by measuring the stability of three freeze-thaw cycles from freezing (−80°C) to thawing (room temperature) three times. In addition, the stability was determined by storing the prepared plasma samples in an autosampler (10°C) for 4 h.

[3] = Pharmacokinetic study in rats after single oral dose (UPLC-MS/MS, non-compartmental analysis); type: in vivo; conditions: male, Sprague-Dawley, rat, plasma, single oral dose of 10 mg/kg, n = 6, mean ± SD
Text: Six male Sprague-Dawley (SD) Rats (weighing 250 ± 20 g) were obtained from the Laboratory Animal Center of The First Affiliated Hospital of Wenzhou Medical University (Zhejiang, China). They were housed in an environmentally controlled rearing chamber and given food and water that met the standard for 1 week. The animal experiment was approved by the Ethics Committee for the Protection and Use of Laboratory Animals of The First Affiliated Hospital of Wenzhou Medical University (Zhejiang, China).
The rats were fasted for 12 h before the start of the experiment and were given free access to water. Oral gavage was administered to rats at a dose of 10 mg/kg of orelabrutinib dissolved in 0.5% sodium carboxymethylcellulose (CMC-Na). Blood was collected at different collection points at 0.333, 0.667, 1, 1.5, 2, 3, 4, 6, 8, 12, 24 and 48 h after administration. After collected, blood in centrifuge tube was centrifuged for 10 min at 13,000 × g at room temperature, and 100 μl of plasma was separated and stored at −80°C prior to analysis. The concentrations of the analyte were determined using this validated UPLC-MS/MS method, while the non-compartmental model was analyzed using DAS 2.0 software (Drug and Statistical Software of the Shanghai Mathematical Pharmacology Professional Committee, China), and pharmacokinetic parameters were calculated.

[4] = prepared plasma samples, autosampler 10°C for 4 h, nominal 2 ng/ml
[5] = prepared plasma samples, autosampler 10°C for 4 h, nominal 200 ng/ml
[6] = prepared plasma samples, autosampler 10°C for 4 h, nominal 1600 ng/ml
[7] = rat plasma, 21 days at −80°C, nominal 2 ng/ml
[8] = rat plasma, 21 days at −80°C, nominal 200 ng/ml
[9] = rat plasma, 21 days at −80°C, nominal 1600 ng/ml
[10] = rat plasma, room temperature at least 3 h, nominal 2 ng/ml
[11] = rat plasma, room temperature at least 3 h, nominal 200 ng/ml
[12] = rat plasma, three freeze-thaw cycles (−80°C to room temperature), nominal 2 ng/ml
[13] = rat plasma, three freeze-thaw cycles (−80°C to room temperature), nominal 200 ng/ml
[14] = rat plasma, three freeze-thaw cycles (−80°C to room temperature), nominal 1600 ng/ml

C=CC(=O)N1CCC(c2ccc(C(N)=O)c(-c3ccc(Oc4ccccc4)cc3)n2)CC1 [Orelabrutinib]
Dose dependence of AUC and Cmax ([1]; 64 healthy subjects, single 20-400 mg or multiple doses for 14 days): increased proportionally
Cmax ([1]; healthy subjects, dose not stated): ~300 ng/mL
Measured concentration, Mean ± SD [2, 4]: 2.0 ± 0.1 ng/mL
RE (relative error vs nominal) [2, 4]: −0.2%
Measured concentration, Mean ± SD [2, 5]: 208.0 ± 5.3 ng/mL
RE (relative error vs nominal) [2, 5]: 4.0%
Measured concentration, Mean ± SD [2, 6]: 1649.2 ± 25.3 ng/mL
RE (relative error vs nominal) [2, 6]: 3.1%
Measured concentration, Mean ± SD [2, 7]: 2.1 ± 0.1 ng/mL
RE (relative error vs nominal) [2, 7]: 5.4%
Measured concentration, Mean ± SD [2, 8]: 212.6 ± 7.3 ng/mL
RE (relative error vs nominal) [2, 8]: 6.3%
Measured concentration, Mean ± SD [2, 9]: 1389.2 ± 147.3 ng/mL
RE (relative error vs nominal) [2, 9]: −13.2%
Measured concentration, Mean ± SD [2, 10]: 2.1 ± 0.1 ng/mL
RE (relative error vs nominal) [2, 10]: 6.1%
Measured concentration, Mean ± SD [2, 11]: 199.3 ± 4.8 ng/mL
RE (relative error vs nominal) [2, 11]: −0.4%
Measured concentration, Mean ± SD ([2]; rat plasma, room temperature at least 3 h, nominal 1600 ng/ml): 1603.9 ± 24.6 ng/mL
Measured concentration, Mean ± SD [2, 12]: 2.0 ± 0.1 ng/mL
RE (relative error vs nominal) [2, 12]: 1.0%
Measured concentration, Mean ± SD [2, 13]: 220.3 ± 8.5 ng/mL
RE (relative error vs nominal) [2, 13]: 10.2%
Measured concentration, Mean ± SD [2, 14]: 1773.7 ± 57.6 ng/mL
RE (relative error vs nominal) [2, 14]: 10.9%
Stability in plasma samples (in words) ([2]; rat plasma, room temperature, 10°C, three freeze (−80°C)/thaw (RT) cycles, −80°C for 21 days): stable
AUC(0-inf) [3]: 3600 ± 1540 ng·h/mL
AUC(0-t) [3]: 3590 ± 1540 ng·h/mL
Cmax [3]: 1930 ± 1030 ng/mL
Tmax [3]: 0.56 ± 0.17 h
half-life [3]: 8.25 ± 5.64 h
